Results published in patent US10350334B2, “Catheter locking solution having antimicrobial and anticoagulation properties” (Becton, Dickinson and Company, priority 2009, dated 2019).
Several values for one entry are separate records, joined by “and”; a condition that tells them apart may be missing. Equal entries are not always repeated.

How the values were obtained:
[1] = system: sheep plasma; experiment: Sheep's Plasma Clotting Assay (USP coagulation test); type: biochemical
Description: In order to understand what the working concentration range could be for the anesthetics tested, a Sheep's Plasma Clotting Assay was performed. This test is based on the United States Pharmacopeia (USP) standard test for coagulation and is often used to understand heparin potency. […] Sheep plasma was thawed in a water bath set to 37° C. To facilitate thawing, the plasma in the bottle was inverted every 15 minutes. The plasma was thawed after about 45-60 minutes. The thawed sheep plasma was filtered through glass wool or filtered into a clean glass beaker or flask, to remove particulate matter and to activate it. About 70-80 mL of filtered sheep plasma was collected. Next, a set of test tubes were prepared (VWR Disposable 13×100-mm) in a 6×12 rack. Ten test tubes were needed for each test solution including ten test tubes for the heparin standard. […] For each test solution, every (10) test tube received different volumes of 0.9% NaCl. […] Next, the local anesthetics were added, namely, tetracaine at 30 mg/mL, dibucaine at 30 mg/mL, and bupivacaine at 38 mg/mL. Each of the ten test tubes received different volumes of test solutions, starting with 280 μL and increasing in volume by 20 μL until reaching a volume of 460 μL at the tenth tube. The total volume of saline and test solutions in each of the tubes was 800 μL. A standard solution, namely, USP heparin sodium standard, was also prepared in the same way, with the starting concentration of heparin being 5.6 U/mL. Next, 1 mL of sheep plasma for heparin assay (Bio-Supplies, Inc, P-SPR-1500) was pipetted into each tube, and the rack was gently shaken to ensure mixing. Two hundred μL of a 1% CaCl2 solution was placed into each tube. The total volume for each tube is 2 mL. Each tube was capped with a VWR Plug-type cap, and contents of each tube were inverted six times to ensure that the entire inner wall of each tube was wet. Tubes were incubated for 1 hour at room temperature. After the 1 hour time period, the extent of clotting in each tube was determined by gently shaking each individual test tube (tapping the end gently is acceptable) and then tilting the tube to observe a clot both vertically and horizontally. The degree to which each tube developed a clot was recorded using the following criteria (per the USP Standard) for the visual inspection of the tubes: • 0% Clotting=No apparent clot formed. • 25% Clotting=Small observable clot with mostly liquid. Clot is very mobile. • 50% Clotting=Plasma is completely clotted but mobile. • 75% Clotting=Clot is not mobile but liquid is still present. • 100% Clotting=Clot is not mobile and no liquid is present.
Because of the testing protocol, starting concentrations of anesthetics were diluted from the original formulation. Calculations can be made to compare the efficacy of these anesthetics to the standard anticoagulant heparin by calculating the point at which both standard and test samples yield 50% clotting. Using this calculation, the anesthetic concentration can be referenced back to a measure of U/mL of heparin equivalence.

[2] = system: Staphylococcus epidermidis; experiment: Planktonic cell tests; type: cell-based; settings: heparin solution
Description: In the planktonic cell tests, bupivacine was tested against non-adhering coagulase negative S. epidermidis, which is the bacterial species most prominent in the pathogenesis of CR-BSI. The planktonic cell experiments were performed by the following procedures. First, bacterial suspensions were prepared. Particularly, using BD BBL™ Qualiswab™, S. epidermidis was plated on a Tryptic Soy Broth (TSB) Petri Dish and grown overnight at 37° C. Using a sterile loop, a colony of S. epidermidis was picked up from the TSB Petri Dish and placed into a sterile flask containing 25 mL of sterile TSB media. The flask was then placed in a 37° C. shaking incubator and was shaken at 150 RPM overnight. The next day, 15 mL of the prepared bacterial suspension was placed into an autoclaved centrifuge tube and centrifuged at 10,000 RPM for 10 minutes using a Sorval Centrifuge. The bacteria from the bacterial suspension were rinsed in 0.9% saline by discarding the liquid media (after centrifugation step) and by resuspending the microbial pellet in 20 mL of sterile 0.9% saline. The bacteria were centrifuged and rinsed twice more, for a total of three saline rinses. […]
Bulk concentrations of the bupivacaine and/or vancomyacin (as noted in FIG. 1) were prepared in separate beakers and were filter sterilized. […] Samples were also assessed at time 0, in which there was no exposure to antimicrobials. […]

[3] = Internal testing of anticoagulant equivalence to heparin; settings: per internal testing
[4] = system: Staphylococcus epidermidis biofilm; experiment: Catheter biofilm eradication (catheter segment test) on silicone tubing; type: cell-based; settings: 1 hour, silicone catheter segments
Description: (§1) To understand the antimicrobial effects of the local anesthetics used in the lock solution of the present invention in a clinical setting, a biofilm was grown on silicone catheter-like tubing and treated with various concentrations of local anesthetics. First, a sterile silicone catheter-like tube containing 10 mL TSB media was inoculated with a BD BBL™ Qualiswab™, and placed in an incubator at 37° C. overnight. The next day, a sterile flask containing 25 mL TSB (for bacterial species) or 25 mL SDB (for fungal species) was inoculated with the cultured cells. The morning of the experiment, a new flask containing 25 mL of media was inoculated with the new overnight suspension. These steps were taken to ensure that cells were in the log phase, which for S. epidermidis was ˜3-4 hours, and for C. albicans was around ˜18 hrs. […] Microbial concentrations were adjusted to 1×10^5 CFU/mL by dilution with appropriate media. Silicone catheter-like tubing was terminally sterilized by autoclaving the tube for 45 minutes at 121° C. The sterilized catheter-like tubing was inoculated with 1×10^5 CFU/mL for 2 hours under continuous flow. Continuous flow was created by using a peristaltic pump, in which bacterial suspension was flowed through the catheter segments into a waste reservoir. After the 2 hour time period, the same set up was used to pump TSB media through the tubing for an additional 24 hours to allow biofilm to form on the walls of the catheter lumen. After 24 hours, sterilized saline was pumped through the lumen for 30 minutes to rinse the catheters. Catheters were then cut into 1 inch segments using sterile techniques. Catheter segments were dropped into sterile tubes containing 4 mL of antimicrobials, and incubated in a 37° C. incubator shaker for 1 hour. Segments were removed from treatment tubes and placed into new tubes filled with 6 mL of sterile saline. Each segment was swabbed with a sterile swab and both the tube and the swab were sonicated (Ultrasonic cleaner VWR Model 250T) for 3 minutes. Tubes and swabs were then vortexed (Fisher Scientific Vortex Mixer #02-215-365) for 30 seconds each. One hundred microliters of suspension was plated onto TSB agar plates (SDB for fungal species). The remaining 5.9 mL of suspension was passed through 0.4 μm filters and filters were placed on TSB plates. This step was taken to ensure that all possible bacteria were being recovered. All TSB plates were then incubated at 37° C. in a static incubator for 24-48 hours, at which time colony forming units were counted.

[5] = system: P. aeruginosa; experiment: Minimum Biofilm Inhibitory Concentration (MBIC) test; type: cell-based, Pseudomonas aeruginosa; settings: for MBIC: adhered cells, 24 hours incubation; for MBIC Assuming 2 mL lock volume: amount in 2 mL lock volume
Description: (§2) To further evaluate the efficacy of local anesthetics in antimicrobial lock solutions of the present invention, the minimum concentration at which these drugs can inhibit biofilm growth was tested. The local anesthetics identified in Table 4 were tested against three different species of bacteria identified in Table 3 to assess the antimicrobial efficacy against adhered microbes. It is known that adhered microbes, or biofilms, can be more resistant to antimicrobials than planktonic cells.
(§3) Experiments were conducted against adhered microbes as follows: first, a test tube containing 10 mL of sterile TSB was inocubated with BD BBL™ Qualiswab™, with the strain of interest. The tube was placed in an incubator at 37° C. overnight. The next day, a flask containing 25 mL of sterile TSB (or Sabouraud Dextrose Broth (SDB) for fungal species) was inoculated with 1 mL of bacterial suspension. The flask was placed in an incubator at 37° C. and shaken at 150 RPM. The next day a new flask containing 25 mL of TSB (or SDB) media was inoculated with 1 mL from the previous culture. The bacterial or fungal species were allowed to grow to log phase.
(§4) After the microbes entered the log phase, their concentration was checked to ensure that they had reached a minimum of 1×10^8 CFU/mL per a 0.5 MacFarland standard. Microbes were diluted to a concentration of 1×10^5 CFU/mL using a nephelometer and 200 μL of the microbial suspensions were plated on each of the wells of a 96 well plate. The plate was incubated in a standard incubator at 37° C. for 2 hours to allow for microbial cell adhesion. Next, dilutions of the desired concentrations of antimicrobials were prepared. In a separate, blank plate, 1:2 serial dilutions were prepared with the highest concentration of the antimicrobial to the left of the plate, decreasing in concentration towards the right of the plate. For example, 170 μL of the highest concentration of an antimicrobial was dispensed in column 1 (left of plate). Each of the rest of the columns received 170 μL of saline. Column 2 received 170 μL of antimicrobial, making for a 1:2 dilution (or 50% of original concentration). Contents of Column 2 were then transferred to 3, then from 3 to 4, and so forth. Each well was supplemented with 20% media (TSB for S. epidermidis and P. aeruginosa and SDB for C. albicans), thereby ensuring the viability of the cells over the test time period (24 hours). Positive control wells had 20% media in saline. The bacterial plate was removed from the incubator, and bacterial suspension discarded (adhered cells remain on plate). The antimicrobial formulations identified in Table 4 were then added to the bacterial plate and incubated in a standard incubator at 37° C. for 24 hours. After this time period, solutions in the plate were discarded and plates were rinsed with 200 μL of saline. The cells were then fixed with 200 μL of 95% ethanol for 30 minutes, and allowed to air dry for 10 minutes. Next, the cells were stained for 20 minutes with 250 μL of a filtered solution of 2% crystal violet dye. The plates were then rinsed three times with water, and the 2% crystal violet dye was solubilized with 300 μL of 95% ethanol. The plates were allowed to stand for 10 minutes to complete solubilization and then the plates were read on a spectrophotometer at 570 nm absorbance, wherein high absorbance readings of >0.600 indicated microbial growth. Columns in the plate that had no growth were recorded as the […] (MBIC). FIG. 2 illustrates the MBIC corresponding to the specific local anesthetics.

[6] = system: Candida albicans biofilm; experiment: Catheter biofilm eradication (catheter segment test) on silicone tubing; type: cell-based; settings: 38 mg/mL, 1 hour, silicone catheter segments
Description: as §1

[7] = system: C. albicans; experiment: Minimum Biofilm Inhibitory Concentration (MBIC) test; type: cell-based, Candida albicans; settings: for MBIC: adhered cells, 24 hours incubation; for MBIC Assuming 2 mL lock volume: amount in 2 mL lock volume
Description: as §2, §3, §4

[8] = system: S. epidermidis; experiment: as above; type: cell-based, Staphylococcus epidermidis; settings: for MBIC: adhered cells, 24 hours incubation; for MBIC Assuming 2 mL lock volume: amount in 2 mL lock volume
Description: as §2, §3, §4

With heparin as the molecule, how does the “volume at 50% coagulation” value ([1]; Rep 1) read?
Its value is 370 µL.

And the “antimicrobial effect against planktonic Staphylococcus epidermidis” value [2]?
Its value is “virtually no antimicrobial effect”.

For `O=C([O-])CC(O)(CC(=O)[O-])C(=O)[O-].[Na+].[Na+].[Na+]` [sodium citrate], which “anticoagulant equivalence to heparin” value [3] is on record?
The value was “about 20 units/mL of heparin”.

With `CCCNC(C)C(=O)Nc1ccccc1C.Cl` (stereo not drawn) [Prilocaine, Prilocaine HCl] as the molecule, how does the “antimicrobial effect on established biofilm” value [4] read?
Its value is “minimal antimicrobial effect”.

Which results are given for `CCCCOc1cc(C(=O)NCCN(CC)CC)c2ccccc2n1.Cl` [Dibucaine, Dibucaine HCl]?
Equivalence to Heparin ([1]; calculated from volumes giving 50% clotting versus heparin standard, per replicate): 6.23 U/mL; 50% clotting range ([1]; final concentration in tube, 1 hour at room temperature, per replicate): 5.1 to 5.4 mg/mL; MBIC ([5]; HCl): 4.794 mg/mL and 4.75 mg/mL; MBIC Assuming 2 mL lock volume [5]: 9.5 mg; eradication of established biofilm [6]: completely eradicated; Log reduction of established biofilm ([4]; 38 mg/mL): ~0.5 Log; MBIC [7]: 0.59 mg/mL; MBIC Assuming 2 mL lock volume [7]: 1.18 mg; MBIC [8]: 0.59 mg/mL; MBIC Assuming 2 mL lock volume [8]: 1.18 mg

With `Cc1cccc(C)c1NC(=O)C1CCCCN1C.Cl` (stereo not drawn) [Mepivacaine, Mepivacaine HCl] as the molecule, how does the MBIC [5] read?
Its MBIC is 28.2 mg/mL.

What about the “MBIC Assuming 2 mL lock volume” value [5] of the same molecule?
The value was 56.4 mg.

What about the “Log reduction of established biofilm” value ([4]; 28 mg/mL) of the same molecule?
Its value is 1.6 Log.

What about the MBIC [7] of the same molecule?
The MBIC was “No inhibition”.

And the “MBIC Assuming 2 mL lock volume” value [7]?
The value was “No inhibition”.

And the MBIC [8]?
Its MBIC is 28.2 mg/mL.

And the “MBIC Assuming 2 mL lock volume” value [8]?
The value was 56.4 mg.
